According to patent US20050261197A1, “Coffee bean extract, method of extraction and composition containing the same” (priority 2004, published 2005):

Tests used:
[1] = tested on: Adjuvant Induced Arthritis in Rats; assay: Adjuvant-induced arthritis model in rats (paw weight, anti-inflammatory activity); format: in vivo, male Sprague-Dawley rats; conditions: oral gavage once per day for 11 days; for Raw Paw Weight: Day 11, group average
Protocol: Adjuvant-induced arthritis responds to both steroids and non-steroids. The degree of inflammation will be assessed by measuring differences in foot weight and/or the foot volume.
(§1) Rats weighting between 275-310 g were purchased from Animal Technologies Ltd., Kent, Wash. They were male Sprague-Dawley rats. The animals were kept individually in stainless steel cages with free access to water and feed (Harlan Teklan Rodent Diet). The light cycle was maintained at 12 hours light and 12 hours dark. The temperature was maintained at 22° C.±3° C. with a relative humidity of 40 to 70%.
The composite was prepared by combining the isolated compounds genistein, flavionic acid, diadzien, diadzin and the peptide having the sequence Tyrosine-Glycine-Serine-Arginine-Serine. One milligram of each was mixed into 9 ml of distilled water and 1 ml of alcohol. The mixture was then diluted in order to deliver by daily gavage one and 10 mcg doses per kilo body weight.
(§2) The test materials were delivered orally (by gavage) once per day for 11 days.
Male Sprague-Dawley rats (275-310 g) were sensitized by injecting Fruend's complete adjuvant (0.5% suspension of killed mycobacterium tuberculosis (H37RA, Difco, in mineral oil)). A 0.1 ml aliquot was administered intradermally at a plantar site on the right hind leg of each rat.
(§3) The test materials were given orally (by gavage) to each of 5 rats per treatment group once per day for 11 days. Administration of the test materials was initiated on the day of induction of inflammation.
(§4) The left hind paw was measured just before sensitization and again on Day 11. The plantar edema inhibitory rate and the body weight gain rate were determined by comparison with the non-sensitized rat groups.
The paw weights for each group were averaged. Anti-inflammatory activity was determined by comparing paw weights calculated as follows: [formula]
Hydrocortisone was used as a positive control. It is a common anti-inflammatory given to rheumatoid arthritis patients at a dose of 10 mg/kg body weight. The composite of the invention was given at 10 mcg/kg and 1 mcg/kg body weight.

[2] = 11-day body weight gain of rats in the adjuvant-induced arthritis study; format: in vivo, male Sprague-Dawley rats; conditions: for Avg. Final Body wt. / Avg. Weight Gain: oral gavage once per day for 11 days
Protocol: as §1, §2, §3, §4

C[C@]12CCC(=O)C=C1CC[C@@H]1[C@@H]2[C@@H](O)C[C@@]2(C)[C@H]1CC[C@]2(O)C(=O)CO [Hydrocortisone]
Raw Paw Weight ([1]; 1 mcg/kg body wt.): 0.80 g
Raw Paw Weight ([1]; 10 mcg/kg body wt.): 0.76 g
inhibition at 0.001 mg/kg ([1]; Rattus norvegicus, 264 h, 1 mcg/kg body wt., calculated from paw weights): 50%
inhibition at 0.01 mg/kg ([1]; Rattus norvegicus, 264 h, 10 mcg/kg body wt., calculated from paw weights): 58%
Avg. Final Body wt. ([2]; 1 mcg/kg body wt.): 331.0 g
Avg. Weight Gain ([2]; 1 mcg/kg body wt.): 31.4 g
reduction in weight gain ([2]; 10 mcg/kg body weight, 11 days, versus controls): ~50%
Avg. Final Body wt. ([2]; 10 mcg/kg body wt.): 317.0 g
Avg. Weight Gain ([2]; 10 mcg/kg body wt.): 23.6 g
